The source of these data is article PMC11661808 (ADMET & DMPK, 2024).

Read-outs that look alike come from different tables or passages of the source.

The conditions of data set [1]: humans, cited from earlier work.
A short description of data set [2]: Ketoconazole concentration in plasma and ocular tissues after single topical ocular instillation. Type of data set: in vivo, Sprague Dawley rats. The following applies: for concentration at 5 min / concentration at 120 min / concentration at 30 min: Sprague Dawley, rat, topical; for concentration at 120 min: 120 min post-dose; for concentration at 30 min: 30 min post-dose. On the procedure: The mixture was stirred at 40 °C. Subsequently, 0.040 mL of 1 M hydrochloric acid was added, and the mixture was stirred at 40 °C until it was completely dissolved. 0.250 mL of hydroxypropyl beta-cyclodextrin (HPβCD) was added and vortexed and stirred at 40 °C until clear. 0.005 mL of 1 M sodium hydroxide was added to adjust the pH to 6.5-7.0 while stirring magnetically at 40 °C, and 0.038 mL of water was added, vortexed, and stirred at 40 °C until clear.
Each tissue was then homogenized using an Ultrasonic Cell Crusher for 5 seconds. The cornea and retina homogenates were sonicated for 10 min, while the vitreous was sonicated for 30 min at 0 °C prior to bioanalysis. The ocular tissue homogenates were stored in a -80 °C freezer before bioanalysis.
All samples underwent protein precipitation for pharmacokinetic analysis. Plasma and three types of tissue homogenate samples (50 μL each) were treated with 5 μL of methanol and then quenched with a 200 μL methanol and acetonitrile mixture (1:1, v/v) containing 50 ng/mL terfenadine as an internal standard (ISTD). After vortexing for 1 min and centrifuging at 4000 rpm for 15 min, the supernatant was transferred and diluted 10-fold with a methanol/water solution (1:1, v/v, containing 0.1 % formic acid) for LC-MS/MS analysis. The working solution was prepared with a concentration range of 50.0 to 100,000 ng/mL.
The quantitative sample analysis was performed on a Shimadzu LC-20AD (Shimadzu, Japan) - API 4000 mass spectrometer (SCIEX, Canada).

The conditions of data set [3]: in vivo.
Procedure: (§1) Nine rats were randomly divided into three groups and their body weights were recorded from 254 to 281 g. […] Rats were sacrificed at 5, 30 and 120 min post-dose (n = 3 per time point). Cornea, retina, and vitreous humour samples were collected, washed in saline three times and weighed, while blood samples were taken from the heart puncture. Tissue samples were initially stored on dry ice, while the blood samples were centrifuged at 4 °C and 6000 rpm for 10 min. Subsequently, the plasma samples were prepared and also stored on dry ice. Ultimately, all samples were cryopreserved in a -80 °C freezer after harvest.
(§2) Rat plasma (400 RL, 44.4 LL/rat at each time point) was pooled from 3-time points utilizing the equal volume method and subsequently precipitated with acetonitrile containing 0.1 % formic acid at a ratio of 1:3. Homogenate samples of rat cornea, retina, and vitreous humour (600 L, 66.7 LL /rat) were pooled from three time points individually utilizing the equal volume and transferred into a 15 mL centrifuge tube and subjected to precipitation with acetonitrile containing 0.1 % formic acid at the same ratio of 1:3. Following centrifugation, the supernatant was evaporated under a stream of nitrogen gas. The residues from plasma and rat retina were reconstituted with 150 L of 10 % acetonitrile in H2O (with 0.1 % formic acid), while the residues from the rat cornea and vitreous humour were reconstituted with 100 L of 10 % acetonitrile in H2O (0.1 % formic acid). Four types of blank samples were processed in a similar manner. Ultimately, 10,L samples of each tissue were injected for analysis using the Ultimate 3000-Q-Exactive Plus system.
(§3) Mobile phase A consisted of water containing 0.1 % formic acid, while mobile phase B consisted of acetonitrile with 0.1 % formic acid. […] Mass scanning was performed on the Q-Exactive Plus using positive-ion full MS/dd-MS2 mode with a range from m/z 80 to 900. The collision energy was set at 30, 40 and 50 eV. The mass resolution was set as 70,000 for full MS, and 17,500 for dd-MS2 scans, and the mass error limit was set as 5.0 ppm.
The nature of data set [4]: Metabolite identification and profiling in pooled rat plasma, cornea, retina and vitreous humour after eye drop administration. The following applies: for Relative peak area abundance, COR: pooled rat cornea homogenate (5, 30, 120 min); for Relative peak area abundance, VH: pooled rat vitreous humour homogenate (5, 30, 120 min); for Relative peak area abundance, PLA: pooled rat plasma (5, 30, 120 min).
Procedure: as §1, §2, §3

Where [5] appears, read: plasma, 300 μg per rat, rat plasma, read-out: mean concentration in plasma.
Setting [6] is: selected ion chromatographic peak areas.

On to `CC(=O)N1CCN(c2ccc(OCC3COC(Cn4ccnc4)(c4ccc(Cl)cc4Cl)O3)cc2)CC1` (centres unmarked) [Ketoconazole], for which the “biphasic elimination, thereafter” value in data set [1] (after the first 10 h) was 8 h. The “biphasic elimination, during the first 10 h” value in data set [1] (first 10 h) is listed as 2 h. In addition, the “time to maximum plasma concentration” value in data set [1] is 1 to 2 h. The concentration at 5 min came to 416000 ng/g in data set [2] (cornea, 150 μg per eye, rat cornea, left eye, 5 min post-dose, 150 μg per eye, read-out: mean concentration in cornea, left eye); 430000 ng/g in data set [2] (cornea, 150 μg per eye, rat cornea, right eye, 5 min post-dose, 150 μg per eye, read-out: mean concentration in cornea, right eye); 423000 ng/g in data set [2] (cornea, 300 μg per rat, mean ketoconazole concentration in cornea, rat cornea, 5 min post-dose, 300 μg/rat topical ocular); 445 ng/mL in data set [2] (plasma, 300 μg per rat, rat plasma, 5 min post-dose, read-out: mean concentration in plasma); 439 ng/g in data set [2] (retina, 150 μg per eye, rat retina, left eye, 5 min post-dose, 150 μg per eye, read-out: mean concentration in retina, left eye); 552 ng/g in data set [2] (retina, 150 μg per eye, rat retina, right eye, 5 min post-dose, 150 μg per eye, read-out: mean concentration in retina, right eye). Further, the concentration at 5 min in data set [2] (retina, 300 μg per rat, mean ketoconazole concentration in retina, rat retina, 5 min post-dose, 300 μg/rat topical ocular) was determined as 4960 ng/g; in data set [2] (vitreous humour, 150 μg per eye, rat vitreous humour, left eye, 5 min post-dose, 150 μg per eye, read-out: mean concentration in vitreous humour, left eye), 1120 ng/g; in data set [2] (vitreous humour, 150 μg per eye, rat vitreous humour, right eye, 5 min post-dose, 150 μg per eye, read-out: mean concentration in vitreous humour, right eye) it was 1180 ng/g; in data set [2] (vitreous humour, 300 μg per rat, mean ketoconazole concentration in vitreous humour, rat vitreous humour, 5 min post-dose, 300 μg/rat topical ocular), 1190 ng/g. Further, the concentration at 120 min is 8360 ng/g in data set [2] (cornea, 300 μg per rat, mean ketoconazole concentration in cornea, rat cornea, mean of left and right eye); 38.4 ng/mL in data set [2] (plasma, 300 μg per rat, mean ketoconazole concentration in plasma, rat plasma, 300 μg/rat topical ocular); 38.4 ng/mL in data set [2] (setting [5]); 94.4 ng/g in data set [2] (retina, 300 μg per rat, mean ketoconazole concentration in retina, rat retina, mean of left and right eye); 116 ng/g in data set [2] (vitreous humour, 300 μg per rat, mean ketoconazole concentration in vitreous humour, rat vitreous humour, mean of left and right eye). For the same molecule, the concentration at 30 min was 113000 ng/g in data set [2] (cornea, 300 μg per rat, rat cornea, mean of left and right eye, read-out: mean concentration in cornea); 303 ng/mL in data set [2] (setting [5]); 1470 ng/g in data set [2] (retina, 300 μg per rat, rat retina, mean of left and right eye, read-out: mean concentration in retina); 713 ng/g in data set [2] (vitreous humour, 300 μg per rat, rat vitreous humour, mean of left and right eye, read-out: mean concentration in vitreous humour). Besides, the “mean peak plasma concentration” value in data set [2] (rat plasma, 5 min post-dose, 300 μg/rat topical ocular) came to 445 ng/mL.

`Clc1ccc([C@@]2(Cn3ccnc3)OC[C@H](COc3ccc(N4CCNCC4)cc3)O2)c(Cl)c1` [M4 (DAK), N-deacetyl ketoconazole]: the “detection in rat plasma” value in data set [3] (Sprague Dawley) is reported as “No N-deacetyl ketoconazole (M4) was found”; in data set [3], “not detected”. Also, in data set [3] (Sprague Dawley, rat), the “Relative peak area abundance, COR” value came out at 0.2%.

As to `CC(=O)N1CCN(c2ccc(OC[C@H]3CO[C@](Cn4ccnc4)(c4ccc(Cl)cc4Cl)O3)cc2)CC1O` (some centres unmarked) [Metabolite M1], in data set [4] (setting [6]), the “Relative peak area abundance, COR” value is on record as “D (detected in trace amount (the relative abundance was less than 0.1 %))” and the “Relative peak area abundance, VH” value is reported as “D (detected in trace amount (the relative abundance was less than 0.1 %))”.

For the molecule `OC[C@H]1CO[C@](Cn2ccnc2)(c2ccc(Cl)cc2Cl)O1` [Metabolite M2], in data set [4] (setting [6]), the “Relative peak area abundance, COR” value stood at 1.1%; the “Relative peak area abundance, PLA” value turned out to be 0.1%; the “Relative peak area abundance, VH” value is 0.6%. Also, the “Relative peak area abundance, RET” value in data set [4] (pooled rat retina homogenate (5, 30, 120 min), selected ion chromatographic peak areas) turned out to be 1.2%. Besides, the “abundance of dominant metabolite in cornea, retina” value in data set [4] (rat cornea, retina) was 1.1-1.2%.

With `CC(=O)N1CCN(c2ccc(OC[C@H]3CO[C@](CN)(c4ccc(Cl)cc4Cl)O3)cc2)CC1` [Metabolite M6], in data set [4] (setting [6]), the “Relative peak area abundance, COR” value was 0.1% and the “Relative peak area abundance, PLA” value amounted to 0.6%.
